According to patent US20250228832A1, “METHODS FOR TREATING DISORDERS AMELIORATED BY MUSCARINIC RECEPTOR ACTIVATION” (KARUNA THERAPEUTICS, INC., priority 2022, published 2025):
Where two headings read alike, the source gives them in different places.

Molecular target: T1, human M2 receptor (Homo sapiens, UniProt P08172)
T1 sequence (P08172 1-466): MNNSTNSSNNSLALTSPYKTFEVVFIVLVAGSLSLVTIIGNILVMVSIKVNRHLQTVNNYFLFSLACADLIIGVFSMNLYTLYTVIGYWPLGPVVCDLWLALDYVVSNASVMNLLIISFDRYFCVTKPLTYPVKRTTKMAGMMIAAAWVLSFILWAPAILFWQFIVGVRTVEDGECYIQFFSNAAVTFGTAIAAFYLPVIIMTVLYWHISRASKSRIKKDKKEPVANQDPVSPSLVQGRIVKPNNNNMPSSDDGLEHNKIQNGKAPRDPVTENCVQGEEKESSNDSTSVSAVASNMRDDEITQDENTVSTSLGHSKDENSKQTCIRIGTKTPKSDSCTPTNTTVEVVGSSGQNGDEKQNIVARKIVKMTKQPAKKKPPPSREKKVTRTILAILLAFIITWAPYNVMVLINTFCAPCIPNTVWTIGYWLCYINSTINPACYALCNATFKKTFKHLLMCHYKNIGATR
Experiment: SPA GTP (GTPgS) binding curve shift assay, M2
Format: biochemical
Protocol: Membranes were prepared for GTPgS binding assays from CHO-K1 cells stably expressing human M2 or human M4 receptors. Cells were grown in 5-layer cell culture flasks. Cells were washed with 50 mL of PBS and then dissociated with 0.05% trypsin. Dissociated cells were then collected by centrifugation at 650×g for 8 min at 4° C. Pellets were rewashed in PBS by centrifugation and resuspended in 30 mL of 20 mM HEPES, 10 mM EDTA, pH 7.4. After sitting on ice for 30 min, membranes were collected by centrifugation at 50000×g for 15 min at 4° C., resuspended in 30 mL of 20 mM HEPES, 0.1 mM EDTA, pH 7.4, and collected again by centrifugation. Pellets were then washed twice by centrifugation in 30 mL of 20 mM HEPES, pH 7.4, and stored at −80° C. until the day of the assay. On the day of the assay, pellets were thawed on ice and resuspended in 1 mL of 20 mM HEPES, pH 7.4, 10 mM MgCl2, and 100 mM NaCl using Dounce homogenization.
According to Promega guidelines, membrane protein concentration was determined by BCA protein assay (Promega, Madison, WI).
On the day of the assay, serial dilutions of test PAM compounds were brought up in assay buffer (20 mM HEPES, 10 mM MgCl2; see Table 4 for NaCl concentrations) at four times the final assay concentration. […] of membrane homogenates (containing […] of membrane protein) were prepared in assay buffer supplemented with GDP at 4× final assay concentration (see Table 4 for GDP concentrations) and dispensed into 96 well polypropylene, U-bottom Greiner plates. Membrane plates were incubated for 10 min at room temperature with gentle shaking. Then, 25 μL of test compounds were added to assay plates. Plates were then incubated, with shaking, for an additional 10-15 min. Then, 25 μL of diluted agonists serially diluted in assay buffer at 4× final assay concentration was added to assay plates. Plates were then incubated, with shaking, for an additional 10-15 min. Next, […] of 0.4 nM ^35S-GTP (Perkin Elmer, Waltham, MA) in assay buffer was added to assay mixtures. The binding reaction was left on the shaker for 1 h at room temperature. Membranes in assay reactions were then transferred to GF/C filter plates (UniFilter, Perkin Elmer) and washed three times using FilterMate Harvester (Perkin Elmer) with cold assay buffer containing no GDP. Filter plates were then dried at 40° C. overnight, and […] of Beta Plate Scintillation liquid was added. Plates were top and bottom sealed before being read on the TopCount scintillation counter (Perkin Elmer, Waltham, MA).
Raw data for all assays was transmitted directly from plate readers into the Beacon database for processing. All assay plates contained positive and negative control wells for data normalization and scaling. […] All control wells contained DMSO at a final assay concentration that matched the test compound wells.
For GTPgS assays, the negative control wells were defined as 0% response. The highest response in a plate was scaled to 1, representing 100% response. Data from test compound wells was scaled to these controls and are reported as % control values. This was done to allow for subsequent GraphPad cooperativity analysis, setting the maximal response at no more than 1.

[1] = M2, Emraclidine concentration 0 nM
[2] = M2, Emraclidine concentration 41.2 nM, read-out: Emax
[3] = M2, Emraclidine concentration 123 nM, read-out: Emax
[4] = M2, Emraclidine concentration 370 nM
[5] = M2, Emraclidine concentration 1110 nM, read-out: Emax
[6] = M2, Emraclidine concentration 3330 nM, read-out: Emax
[7] = M2, Emraclidine concentration […]
[8] = M2, MK-4710 concentration 41.2 nM, read-out: Emax
[9] = M2, MK-4710 concentration 123 nM, read-out: Emax
[10] = M2, MK-4710 concentration 370 nM
[11] = M2, MK-4710 concentration 1110 nM, read-out: Emax
[12] = M2, MK-4710 concentration 3330 nM, read-out: Emax

EC50 [1] [nM]	Emax [1] [%]	Emax [2] [%]	Emax [3] [%]	Emax at […] [4] [%]	Emax [5] [%]	Emax [6] [%]	Emax at […] [7] [%]	α (cooperativity, affinity shift) (M2, M4 PAM Emraclidine)	β (cooperativity, efficacy shift) (M2, M4 PAM Emraclidine)	τ (agonist pharmacology) (M2, M4 PAM Emraclidine)	α (cooperativity, affinity shift) (M2, M4 PAM MK-4710)	β (cooperativity, efficacy shift) (M2, M4 PAM MK-4710)	τ (agonist pharmacology) (M2, M4 PAM MK-4710)	Emax (M2, MK-4710 concentration 0 nM) [%]	Emax [8] [%]	Emax at […] [10] [%]	Emax [11] [%]	Emax [12] [%]	Emax at […] (M2, MK-4710 concentration […]) [%]	Structure (SMILES)	other results
18.5	35.6	57.9	51.1	52.6	65.9	79.2	44.8	1.0	18.1	0.1	1.0	5.0	0.1	45.1	53.2	59.1	70.6	78.7	60.6	CCCCCOc1nsnc1C1=CCCCN1C [KTX-517, 3-(1-methyl-1,4,5,6-tetrahydropyridin-2-yl)-4-(pentyloxy)-1,2,5-thiadiazole]	EC50 (M2, MK-4710 concentration 0 nM): 14.3 nM; EC50 (M2, MK-4710 concentration 41.2 nM): 11.9 nM; EC50 (M2, MK-4710 concentration 123 nM): 14.8 nM; Emax [9]: 55.6%; EC50 [10]: 13.1 nM; EC50 (M2, MK-4710 concentration 1110 nM): 15.8 nM; EC50 (M2, MK-4710 concentration 3330 nM): 10.3 nM; EC50 (M2, MK-4710 concentration […]): 25.7 nM
2100	34.0	57	51.8	48.6	51.4	69.6	43.8	1.0	21.1	0.0	1.0	53.4	0.0	39.6	38.2	39.3	49.5	68.2	42.1	CC1OC2(CS1)CN1CCC2CC1 (stereo not shown) [cevimeline, Cevimeline, reference compound]	EC50 (M2, MK-4710 concentration 0 nM): 2260 nM; Emax [9]: 39%
35.7	39.8	52.6	52.2	50.1	67.5	75.1	48.7	1.0	1370.0	1.6	1.0	10.3	0.0	38.7	50.1	61.4	62.2	77.6	57	CCCCCCCOc1nsnc1C1=CCCCN1C [KTX-593, 3-(heptyloxy)-4-(1-methyl-1,4,5,6-tetrahydropyridin-2-yl)-1,2,5-thiadiazole]	EC50 (M2, MK-4710 concentration 0 nM): 19.6 nM; Emax [9]: 50.2%

Structure (SMILES)	EC50 [1] [nM]	Emax [1] [%]	Emax [2] [%]	Emax [3] [%]	Emax at […] [4] [%]	Emax [5] [%]	Emax [6] [%]	Emax at […] [7] [%]	α (cooperativity, affinity shift) (M2, M4 PAM Emraclidine)	β (cooperativity, efficacy shift) (M2, M4 PAM Emraclidine)	τ (agonist pharmacology) (M2, M4 PAM Emraclidine)	α (cooperativity, affinity shift) (M2, M4 PAM MK-4710)	β (cooperativity, efficacy shift) (M2, M4 PAM MK-4710)	τ (agonist pharmacology) (M2, M4 PAM MK-4710)	Emax (M2, MK-4710 concentration 0 nM) [%]	Emax [8] [%]	Emax at […] [10] [%]	Emax [11] [%]	Emax [12] [%]	Emax at […] (M2, MK-4710 concentration […]) [%]	other results
CCCCCCOc1nsnc1C1=CCCN(C)C1 [xanomeline, reference compound]	–	36.2	48.2	49.8	41.5	59.6	64.1	41.7	–	–	0.0	–	–	0.0	55.6	65.3	55.5	74.1	75.7	60.1	Emax: 74.7%
